From US20220281930A1, “COMPOSITIONS AND METHODS FOR THE TREATMENT OF PATHOLOGICAL PAIN AND ITCH” (DUKE UNIVERSITY, priority 2019, published 2022)

How the values were obtained:
[1] = test system: δ-cat; assay: δ-cat nuclear translocation in primary neurons, immunolabeling morphometry; assay type: cell-based, rat; details: KP vs vehicle, FIG. 8C
Experimental: Immunocytochemistry labeling of cultured neuronal cells was carried out as previously described (Liedtke et al., 2013, Small 9, 1066-1075; Yeo et al., 2009, J Neurosci 29:14652-14662; Yeo et al., 2013, Proc Natl Acad Sci USA 110:4315-4320). Primary antibodies are shown in the antibody table. Anti-KCC2 primary antibodies were validated with developing rat primary cortical neurons; we observed an increase in staining pattern that tightly matched increase of KCC2 mRNA expression (Liedtke et al., 2013, Small 9:1066-1075; Yeo et al., 2009, J Neurosci 29:14652-14662.; Yeo et al., 2013, Proc Natl Acad Sci USA 110:4315-4320). Secondary antibodies used were goat anti-mouse IgG Alexa Fluor 594 (Invitrogen A11032) and goat anti-rabbit IgG Alexa Fluor 594 (Invitrogen A11012). DAPI stain was obtained from Sigma Aldrich (D9542). Stained cells were observed using an inverted confocal microscope (Zeiss LSM780).
We obtained stacks of images recorded at 0.35 μm intervals through separate channels with a 63× oil-immersion lens (NA, 1.40, refraction index, 1.45). Zen software (Zeiss) was used to construct composite images from each optical series by combining the images recorded through the different channels, and the same software was used to obtain Z projection images (image resolution: 1024×1024 pixels; pixel size: 0.11 μm). ImageJ was used for morphometry. […]

[2] = test system: KCC2 mRNA; assay: KCC2 mRNA RT-qPCR in primary human cortical neurons; assay type: cell-based; details: KP 50, 100, 400 nM, 48 h
Experimental: The neuron-enriched cultures were established from fetal cortical specimens at 15-20 weeks of gestation. The protocols for tissue processing complied with all federal and institutional guidelines. The cultures were plated on PEI (polyethyleneimine solution) substrate and maintained in Neurobasal media supplemented with B27 as previously described (Pelsman et al., 2003, International journal of developmental neuroscience 21:117-124; Yeo et al., 2013, Proc Natl Acad Sci USA 110:4315-4320).
For RT-qPCR, the cell pellets were collected after treatments with vehicle (0.1% DMSO) or KP (50, 100, and 400 nM) for 48 h starting at day 6 in vitro.
Total RNA was isolated from cultured cell samples using Directzol RNA miniprep kit (ZymoResearch). The protocol includes DNAse digestion to exclude genomic DNA from preparations. Total RNA (1 μg) was reverse transcribed using oligo primers (dT) and SuperScriptIII first-strand synthesis kit (Invitrogen). Gene expression was assessed by quantitative real-time PCR using 2×SYBR Green Master Mix (Qiagen) and a three-step cycling protocol (anneal at 60° C./elongate at 72° C., denature at 95° C.). […] The amount of target messenger RNA (mRNA) in the experimental group relative to that in the control was determined from the resulting fluorescence and threshold values (Ct) using the ΔΔCt method. βIII-tubulin was used as housekeeping gene. […]

O=C1Cc2c([nH]c3ccc(Br)cc23)-c2ccccc2N1 [kenpaullone, 9-bromo-7,12-dihydro-indolo [3,2-d] [1]benzazepin-6(5H)-one]
δ-cat nuclear translocation [1]: significantly increases
KCC2 mRNA [2]: increases in a dose-dependent manner
